Reference: patent US20060211673A1, “Modulation of neurodegenerative diseases through the estrogen receptor” (ALSGEN, LLC, priority 2005, published 2006)

Assays:
SOD-1 protein = test: SOD-1 ELISA on lysates of HeLa cells after 72 hours of incubation with drug; format: cell-based, human
Experimental: Briefly, cells were maintained in Dulbecco's Minimal Essential Medium, with high glucose, supplemented with glutamine, 4 mM, certified fetal bovine serum, 10%, and penicillin, streptomycin, and nystatin (all from Invitrogen). Incubation conditions were 37 degrees and 99% relative humidity, with CO2 at 5%. Cultures were passaged when they reached 90% confluence. For pharmacological experiments, cells were plated into sterile tissue culture treated 96 well plates at a density of 3,500 cells/well in 150 μl medium. After plating and 6 hours for attachment, drugs were added to the medium in a concentration of 10 μM. Following 72 hours of incubation with the drugs, the cells were photographed at 100× using an inverted microscope and digital camera, so that cytotoxicity could be evaluated. After photodocumentation, the medium was removed and the cells were washed once with phosphate buffered saline, and then 50 μl molecular biology grade water containing a protease inhibitor cocktail was added. After 10 min incubation, the plates were placed in −80 degrees to induce complete lysis. Plates were then thawed and 25 μl was transferred from each well into a maxsorp ELISA plate coated with anti-human SOD-1 antibody, which contained 75 μl phosphate buffered saline. A second antibody pair (a polyclonal anti-SOD-1/HRP conjugated goat anti-rabbit) was then added to the well, and incubation was conducted for 1 hour at room temperature. At the conclusion of the incubation, the plate was washed three times (wash buffer from KPL Inc.) and Sure Blue Reserve HRP Substrate was added. […] The plate was then shaken gently for 5 seconds and the absorbance at 450 mn read on a Tecan Plate reader. Absorbance from each sample were compared to standard curve of purified recombinant human SOD-1 assayed on the same ELISA plate, and SOD-1 immunoreactivity (ng/ml) was estimated by comparison with the standard curve. […] The total protein of the lysates was determined by Bradford assay as described in Example 1 (iv). […]

HeLa cells = test: Bradford total protein assay of HeLa lysates (check for cytotoxic effects); format: cell-based, human; conditions: 72 hours
Experimental: To determine if decrements found in the SOD-1 assay were simply the result of cytotoxic effects of the drug treatment, total protein was determined for each well. While the ELISA incubation was ongoing, 10 μl of the remaining lysate was removed from each well and placed into another empty plate, and BioRad Bradford reagent (100 μl) was added to the protein. After a 15 min incubation at room temperature the plate was shaken gently for 5 seconds and the absorbance was read at 595 nm in a Tecan Sunrise plate reader. Protein concentrations in each well were thus determined by comparison with protein standards that were run on the same plate.
Following 72 hours of incubation with the drugs, the cells were photographed and processed as described in Example 1 (iii). The total protein of the lysates was determined by Bradford assay as described in Example 1 (iv). […] This reduction was dose related and maximal by 3 μM, with an IC50 of 2 μM.

SOD-1 mRNA = SOD-1 mRNA by RT-PCR in blood of the SOD-93A murine model for ALS; format: in vivo; conditions: SOD-93A mice, ip 1 or 10 mg/kg for 14 days, lymphocyte/blood samples, p<0.05, FIG. 2
Experimental: The effects of the estrogen receptor modulating agent (e.g., Estradiol), and analogs thereof described in Examples 2 were tested in vivo in the SOD-93A murine model for ALS, and a reduction in SOD-1 levels was measured. The inhibition of RNA expression was monitored by isolated blood samples from a mouse pre- and post introduction of the compound (estradiol benzoate) using standard RT-PCR techniques. The expression of the SOD-1 protein was determined using Western blot techniques with an anti-SOD-1 antibody from Sigma. […] The results are shown as a % of internal control, 18S rRNA.

C[C@]12CC[C@@H]3c4ccc(O)cc4CC[C@H]3[C@@H]1CC[C@@H]2O [Estradiol]
concentration at which reduction of SOD-1 protein is maximal (SOD-1 protein; 72 hours, dose related): ≤ 3 µM | IC50 (SOD-1 protein; drug added to culture medium 72 hours before harvest, read-out: IC50 of reduction of SOD-1 protein levels): 2 µM | total protein levels (HeLa cells): unaffected

C[C@]12CC[C@@H]3c4ccc(OC(=O)c5ccccc5)cc4CC[C@H]3[C@@H]1CC[C@@H]2O [estradiol benzoate]
SOD-1 mRNA (% of internal control, 18S rRNA) (SOD-1 mRNA): decreased

CCCCC(=O)O[C@H]1CC[C@H]2[C@@H]3CCc4cc(O)ccc4[C@H]3CC[C@]12C [estradiol valerate]
levels of SOD-1 protein (SOD-1 protein; 72 hours, FIG. 1): reduction
